Like-named read-outs stand apart in the source and are kept apart here.
Tests used:
PBCV-1 GTase [1] = target: T1, PBCV-1 GTase (Paramecium bursaria Chlorella virus 1, UniProt Q84424); experiment: Inhibition of the first step of the GTase reaction (E-GMP formation); format: biochemical; set-up: His-tag; made in house; conditions: for Effect on radiolabelled EpG signal: unlabelled nucleotide 2 mM, GTase 10 µM
Protocol: Inhibition of the first step of the GTase reaction was evaluated by carrying out the standard first step GTase reaction in the presence of 0.2 pmol of [α-^32P] GTP and 2 mM of either unlabelled GTP or each unlabelled nucleotide analogue separately. The IC50 of nucleotide analogues was determined by carrying out the standard first step reaction in the presence of 0.2 pmol of [α-^32P] GTP and increasing concentrations of up to 2 mM of each nucleotide analogue. The reactions were stopped by the addition of EDTA to 10 mM and SDS to 1% and analyzed by electrophoresis through a 12.5% polyacrylamide gel containing 0.1% SDS. The radiolabelled proteins were visualized by autoradiography of the gel. Radiolabelled covalent complex formation was quantified by scanning the gel with a PhosphorImager (Amersham Biosciences).

PBCV-1 GTase [2] = target: T1, PBCV-1 GTase; experiment: In vitro RNA capping efficiency (nuclease P1 / alkaline phosphatase digestion, TLC); conditions: for Relative efficiency of RNA capping, 1st and 2nd steps: nucleotide 2 mM, normalized onto the value obtained with GTP
PBCV-1 GTase [3] = target: T1, PBCV-1 GTase; experiment: Formation of the covalent enzyme-nucleotide intermediate (SDS-PAGE, Coomassie blue); format: biochemical; set-up: His-tag; made in house; conditions: nucleotide analogue 2 mM, magnesium ions 5 mM
Protocol: The standard first step reaction was carried out in the presence of each nucleotide analogue (2 mM) in the presence or absence of potassium pyrophosphate (1 mM). The reactions were resolved on SDS-PAGE followed by Coomassie blue staining.

PBCV-1 GTase [4] = target: T1, PBCV-1 GTase; experiment: Transfer of nucleotide analogues onto internally labelled 50 nt RNA (Urea-PAGE); conditions: 32P-internally labelled RNA
eIF4E protein = target: T2, eIF4E protein (Mus musculus, UniProt P63073); experiment: Binding of free NTP to purified eIF4E (fluorescence saturation isotherm); set-up: species or system murine; conditions: 2 µM protein, pH 8.0
T2 construct: His-tag; made in house; host or cells: bacteria
T2 sequence (P63073 whole entry): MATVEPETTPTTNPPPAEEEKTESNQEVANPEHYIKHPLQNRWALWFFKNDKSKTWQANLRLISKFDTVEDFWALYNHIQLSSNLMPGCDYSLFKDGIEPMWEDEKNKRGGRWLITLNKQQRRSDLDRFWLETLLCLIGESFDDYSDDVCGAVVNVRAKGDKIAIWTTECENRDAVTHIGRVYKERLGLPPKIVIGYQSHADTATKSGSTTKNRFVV
Protocol: The binding of RNAs harboring modified RNA cap structures to the eIF4E protein was evaluated by fluorescence spectroscopy as described previously [23]. Briefly, excitation was performed at a wavelength of 290 nm fluorescence using a Hitachi F-2500 fluorescence spectrophotometer. Background emission was eliminated by subtracting the signal from the buffer containing the RNA substrate. The extent to which the RNA binds to purified eIF4E protein was determined by monitoring the fluorescence emission of a fixed concentration of proteins with and without the appropriate RNA (2 µM).
(B) Increasing amounts of NTP were added to a 2 µM solution of the purified protein in a binding buffer (50 mM Tris/HCl, pH 8.0, and 50 mM KOAc) and following excitation of tryptophan residues at 290 nm the emission spectrum was scanned from 310 to 440 nm. […] The data was fit to a binding curve.

[5] = read-out: IC50 for E-GMP formation, 1st step, 0.2 pmol [α-32P] GTP, PBCV-1 GTase 10 µM, analogue up to 2 mM, pH 7.5, 1hr at 30°C

T1 sequence (Q84424 whole entry): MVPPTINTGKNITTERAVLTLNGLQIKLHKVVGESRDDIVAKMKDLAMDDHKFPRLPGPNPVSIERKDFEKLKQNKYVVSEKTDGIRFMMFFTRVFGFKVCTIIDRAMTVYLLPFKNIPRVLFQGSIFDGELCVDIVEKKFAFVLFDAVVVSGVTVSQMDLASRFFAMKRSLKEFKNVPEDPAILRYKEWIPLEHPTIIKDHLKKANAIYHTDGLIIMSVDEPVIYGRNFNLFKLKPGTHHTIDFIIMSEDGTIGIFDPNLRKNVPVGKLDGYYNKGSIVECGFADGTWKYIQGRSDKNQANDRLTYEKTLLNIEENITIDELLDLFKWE

| Compound | IC50 (PBCV-1 GTase [1]; [5]) [µM] | Relative efficiency of RNA capping, 1st and 2nd steps (PBCV-1 GTase [2]) | also measured |
| --- | --- | --- | --- |
| Cn1c(N)nc2c(ncn2[C@@H]2O[C@H](COP(=O)(O)OP(=O)(O)OP(=O)(O)O)[C@@H](O)[C@H]2O)c1=O [A1, N1-Me GTP] | 80 | 1.1 | Covalent intermediate: slower migrating species on SDS-PAGE (PBCV-1 GTase [3]): appearance of a slower migrating species |
| O=c1[nH]cnc2c1ncn2[C@@H]1O[C@H](COP(=O)(O)OP(=O)(O)OP(=O)(O)O)[C@@H](O)[C@H]1O [A2, ITP] | 340 | 1.3 | Formation of capped RNA (slower migrating species) (PBCV-1 GTase [4]): formation of a slower migrating species corresponding to the capped RNA; Covalent intermediate: slower migrating species on SDS-PAGE (PBCV-1 GTase [3]): appearance of a slower migrating species |
| Nc1nc(N)c2ncn([C@@H]3O[C@H](COP(=O)(O)OP(=O)(O)OP(=O)(O)O)[C@@H](O)[C@H]3O)c2n1 [A4, 2-Amino ATP] | > 2000 | – | – |
| Nc1nc(Cl)c2ncn([C@@H]3O[C@H](COP(=O)(O)OP(=O)(O)OP(=O)(O)O)[C@@H](O)[C@H]3O)c2n1 [A5, 2-Amino-6 Cl purine RTP] | 160 | 0.08 | RNA capping (transfer onto RNA) relative to GTP (PBCV-1 GTase [2]): 8% |
| COc1nc(N)nc2c1ncn2[C@@H]1O[C@H](COP(=O)(O)OP(=O)(O)OP(=O)(O)O)[C@@H](O)[C@H]1O [A7, O6-Me GTP] | 150 | 0.48 | RNA capping (transfer onto RNA) relative to GTP (PBCV-1 GTase [2]): ~ 50% |
| CSc1nc(N)nc2c1ncn2[C@@H]1O[C@H](COP(=O)(O)OP(=O)(O)OP(=O)(O)O)[C@@H](O)[C@H]1O [A8, 6-Me thio GTP] | 430 | 0.07 | – |
| CSc1ncnc2c1ncn2[C@@H]1O[C@H](COP(=O)(O)OP(=O)(O)OP(=O)(O)O)[C@@H](O)[C@H]1O [A10, 6-Me thio ITP] | 1200 | – | Transferability of covalent intermediate onto RNA (PBCV-1 GTase [2]; 5’-α terminally labelled RNA, TLC): clearly not transferable onto RNA |
| O=P(O)(O)OP(=O)(O)OP(=O)(O)OC[C@H]1O[C@@H](n2cnc3c(Cl)ncnc32)[C@H](O)[C@@H]1O [A11, 6-Cl purine RTP] | > 2000 | – | – |
| Nc1nc2c(nc(Br)n2[C@@H]2O[C@H](COP(=O)(O)OP(=O)(O)OP(=O)(O)O)[C@@H](O)[C@H]2O)c(=O)[nH]1 [A13, 8-Bromo GTP] | 1500 | 0.40 | – |
| Nc1nc2c(nc(I)n2[C@@H]2O[C@H](COP(=O)(O)OP(=O)(O)OP(=O)(O)O)[C@@H](O)[C@H]2O)c(=O)[nH]1 [A14, 8-Iodo GTP] | 420 | 1.0 | – |
| Nc1nc2c(ccn2[C@@H]2O[C@H](COP(=O)(O)OP(=O)(O)OP(=O)(O)O)[C@@H](O)[C@H]2O)c(=O)[nH]1 [A16, 7-deaza GTP] | > 2000 | – | – |
| Nc1ncnc2c1ncn2[C@@H]1O[C@H](COP(=O)(O)OP(=O)(O)OP(=O)(O)O)[C@@H](O)[C@H]1O [ATP, reference compound] | – | – | Formation of capped RNA (slower migrating species) (PBCV-1 GTase [4]): no effect; IC50 (PBCV-1 GTase [1]; 0.2 pmol [α-32P] GTP, PBCV-1 GTase 10 µM, analogue up to 2 mM, pH 7.5, 1hr at 30°C, read-out: IC50 for E-GMP formation, 1st step): > 2000 µM; Effect on radiolabelled EpG signal (PBCV-1 GTase [1]): no apparent effect |
| Nc1nc2c(ncn2[C@@H]2O[C@H](COP(=O)(O)OP(=O)(O)OP(=O)(O)O)[C@@H](O)[C@H]2O)c(=O)[nH]1 [GTP, reference compound] | – | 1.0 | Kd for purified eIF4E (eIF4E protein): much higher apparent binding constant; Formation of capped RNA (slower migrating species) (PBCV-1 GTase [4]): formation of a slower migrating species corresponding to the capped RNA; IC50 (PBCV-1 GTase [1]): 100 µM; Effect on radiolabelled EpG signal (PBCV-1 GTase [1]): maximum loss of the radiolabelled EpG signal; Fraction of capped RNA over the total transcripts (PBCV-1 GTase [2]; cap donor 2 mM): 0.35 ±0.05 |
